Test system: patients with severe nodulocystic acne
Assay: Multicenter double-blind placebo-controlled study of oral tazarotene (Example 10)
Assay type: in vivo, human
Details: for patients withdrawing due to lack of efficacy: placebo 17%; for reduction in mean facial papule or pastule count / reduction in mean facial non-inflammatory lesion count / reduction in mean total facial nodulocystic lesion count: end of treatment; for reduction in mean facial papule or pastule count: placebo 31%; for reduction in mean facial non-inflammatory lesion count: placebo 45%; for reduction in mean total facial nodulocystic lesion count: placebo 55%
Source text: A multicenter, double-blind, randomized, placebo-controlled parallel-group study is undertaken to determine the efficacy of orally administered tazarotene in treating severe nodulocystic acne.
In addition, washout periods for other medications for this study are: 1 week for vitamin A supplements >5000 IU; 2 weeks for topical anti-acne medications (e.g., retinoids, azelaic acid, benzoyl peroxide); 2 weeks for topical or systemic antibiotic therapy that may alter the course of acne; and 6 months for systemic retinoids.
Patients are randomized to receive placebo or oral tazarotene (0.75, 1.5, 3, or 6 mg), in a 1:1:1:1:1 ratio once daily for 24 weeks. After this, the patients are followed without treatment for an additional 12 weeks. Patients discontinuing from the treatment period due to adverse effects or lack of efficacy are eligible for entry into the post-treatment phase.
In the study, overall acne severity is rated as: none (no inflammatory acne lesions); mild (few to several papules or pustules, no nodulocystic lesions); moderate (several to many papules or pustules, few to several nodulocystic lesions); and severe (numerous or extensive papules or pustules, many, for example, at least about 5 or at least about 10, nodulocystic lesions).
Treatment success is defined as at least moderate (about 50%) improvement on the following 7-point global response scale: • 0=completely cleared • 1=almost cleared (about 90% improvement) • 2=marked response (about 75% improvement) • 3=moderate response (about 50% improvement) • 4=slight response (about 25% improvement) • 5=condition unchanged • 6=condition worsened
In this study, facial nodulocystic lesion count includes lesions greater than 5 mm in size. Facial papular/pustular lesion count includes lesions less than or equal to 5 mm in size. Facial non-inflammatory lesion count includes open and closed comedones.
Sebum output is assessed every 4 weeks at selected centers using the Sebutape® patches, sold by Cuderm Corporation. Urinalysis, chemistry, and hematology values are monitored. Bone formation and resorption assessments (serum bone alkaline phosphatase and serum amino terminal telopeptides, respectively) at selected centers are monitored.
Bone mineral density of spine and proximal femur at selected centers is monitored. Ligament calcification or osteophyte formation (lateral X-ray of the cervical and thoracic spine, and ankle calcaneous) is monitored. Epiphyseal growth plate closure (internal oblique X-ray of the ankle in patients less than or equal to 21 years old) is monitored.

[1] = 0.75 to 6 mg once daily for 24 weeks

## CCOC(=O)c1ccc(C#Cc2ccc3c(c2)C(C)(C)CCS3)nc1 [tazarotene]
0.75 mg group (2/35)
  patients withdrawing due to adverse events in the treatment period: 6%
0.75 mg group (7/35)
  patients withdrawing due to lack of efficacy: 20%
0.75 mg group, end of the treatment phase, placebo 19%
  patients with either no acne or mild acne: 34%
0.75 mg group
  reduction in mean facial papule or pastule count: 37%
  reduction in mean facial non-inflammatory lesion count: 46%
  reduction in mean total facial nodulocystic lesion count: 66%
0.75 mg group, from 12.2 at baseline
  mean total facial nodulocystic lesion count at the end of the treatment period: 4.2
0.75 mg group, from 32.3 at baseline
  mean facial papule or pastule count at the end of the treatment period: 20.3
0.75 mg group, from 56.3 at baseline
  mean facial non-inflammatory lesion count at the end of the treatment period: 30.3
1.5 mg group (0/37)
  patients withdrawing due to adverse events in the treatment period: 0%
1.5 mg group (2/37)
  patients withdrawing due to lack of efficacy: 5%
1.5 mg group
  reduction in mean facial papule or pastule count: 54%
  reduction in mean facial non-inflammatory lesion count: 70%
  reduction in mean total facial nodulocystic lesion count: 73%
1.5 mg group, from 11.8 at baseline
  mean total facial nodulocystic lesion count at the end of the treatment period: 3.2
1.5 mg group, from 29.1 at baseline
  mean facial papule or pastule count at the end of the treatment period: 13.3
1.5 mg group, from 59.2 at baseline
  mean facial non-inflammatory lesion count at the end of the treatment period: 17.8
3 mg and 6 mg, week 24 and throughout the post-treatment phase (p≦0.05)
  incidence of treatment success (≧50% global improvement) vs placebo: significantly higher incidence of treatment success
3 mg group (0/37)
  patients withdrawing due to lack of efficacy: 0%
3 mg group (2/37)
  patients withdrawing due to adverse events in the treatment period: 5%
3 mg group, end of the post-treatment phase
  patients with either no acne or mild acne: 43%
3 mg group
  reduction in mean facial papule or pastule count: 61%
  reduction in mean facial non-inflammatory lesion count: 62%
  reduction in mean total facial nodulocystic lesion count: 79%
3 mg group, from 10.8 at baseline
  mean total facial nodulocystic lesion count at the end of the treatment period: 2.3
3 mg group, from 25.4 at baseline
  mean facial papule or pastule count at the end of the treatment period: 10.0
3 mg group, from 56.1 at baseline
  mean facial non-inflammatory lesion count at the end of the treatment period: 21.3
3 mg group, placebo 24 weeks (p=0.017)
  median time to initial complete clearing of facial nodulocystic lesions: 16 weeks
6 mg group (1/36)
  patients withdrawing due to adverse events in the treatment period: 3%
6 mg group (2/36)
  patients withdrawing due to lack of efficacy: 6%
6 mg group, end of the post-treatment phase
  patients with either no acne or mild acne: 53%
6 mg group
  reduction in mean facial papule or pastule count: 55%
  reduction in mean facial non-inflammatory lesion count: 72%
  reduction in mean total facial nodulocystic lesion count: 86%
6 mg group, from 11.6 at baseline
  mean total facial nodulocystic lesion count at the end of the treatment period: 1.6
6 mg group, from 24.6 at baseline
  mean facial papule or pastule count at the end of the treatment period: 11.1
6 mg group, from 47.7 at baseline
  mean facial non-inflammatory lesion count at the end of the treatment period: 13.5
6 mg group, placebo 24 weeks (p=0.081)
  median time to initial complete clearing of facial nodulocystic lesions: 16 weeks
6 mg, from week 16 until the end of the post-treatment phase (p≦0.01)
  overall acne severity: reduces the overall acne severity significantly more than placebo
[1]
  bone formation and resorption (serum bone alkaline phosphatase, serum amino terminal telopeptides): do not appear to be altered
  changes in urinalysis, chemistry, or hematology measures (including liver function tests, triglycerides, total cholesterol, HDL cholesterol): None of the treatment groups show any consistent clinically significant changes
  ligament calcification, osteophyte formation, or changes in bone density: None of the treatment groups show any clinically significant ligament calcification, osteophyte formation, or changes in bone density
1.5, 3, and 6 mg groups, week 24
  percentage of patients with at least a 90% reduction in facial nodulocystic lesion count vs placebo: significantly greater
Oral tazarotene 0.75 to 6 mg vs placebo
  sebum secretion (Sebutape method): does not substantially reduce sebum secretion relative to placebo
Three highest dose groups, end of the treatment phase, placebo 19%
  patients with either no acne or mild acne: More than 45%
Three highest doses, by week 12
  patients achieving treatment success: more than 70%
Two highest doses, by week 24
  patients achieving treatment success: more than 86%
